{"source": "patent US12685775B2", "about": "“Oligonucleotides with nucleoside analogs” (Sirnaomics, Inc., priority 2019, dated 2026)", "assay_type_in_all_cases": "cell-based", "key": {"[1]": {"system": "BxPC3 cells", "experiment": "BxPC3 cell viability after 72 hrs treatment, CTG2 reagent (Example 1)", "settings": "Homo sapiens, BXPC-3, BxPC3, 72 h", "description": "BxPC3 cells were seeded in two 384-well plates at 500 cells/well. On the next day cells were treated with various concentrations of CID2A, CID2S, CID4 siRNAs (formulated with Lipofectamine RNAiMAX) or gemcitabine (0.1-1000 nM) for 72 hrs. After incubation at 37° C. for 72 hrs, the number of viable cells was assessed using CTG2 reagent. Non-treated cells were set as 100%."}, "[2]": {"system": "BxPC3 cells", "experiment": "BxPC3 cell viability 96 h after transfection/treatment, Cell Titer Glo (Examples 2 and 3)", "settings": "for pIC50: read-out: IC50, inhibition of cell viability; for inhibition in cell viability at 0.1 nM: BxPC3, 0.1 nM, GEM-modified siRNAs", "description": "(§1) Pancreatic cancer BxPC3 cells were seeded at 1000 cells/ml and grown as monolayers in 384 well plates. The cells were transfected with the siRNAs indicated against CHK1 or Rad17 using Lipofectamine (ThermoFisher) or were treated with gemcitabine at the concentrations indicated on the X axis. After a 96 h incubation at 37° C. with 5% CO2, cell viability was determined using Cell Titer Glo (Perkin Elmer) by monitoring the luminescence signal produced by the reagent in a Perkin Elmer Envision plate reader equipped with Ultrasensitive luminescence detection optics. From the figure we can see that gemcitabine (GEM) produces a dose-dependent inhibition of cell viability with an IC50 of ~6 nM and maximal efficacy of >80% cell killing. A 25mer blunt ended siRNA against RAD17 produced a dose dependent inhibition in cell viability with a maximum efficacy at only 60% reduction in cell viability and an IC50 of ~5 nM. […] The IC50 for the latter siRNA was similar to that for the Azorsa sequence (~0.3 nM).\nSiRNAs were synthesized with gemcitabine nucleotide amidites added at the 3′ end of each of the Sense strands for the siRNA sequences indicated. SiRNAs were transfected into the cells and incubated as detailed in FIG. 1. Maximal efficacy of all sequences was now improved to >95% inhibition of cell viability at concentrations above 10 nM. […] The gemcitabine nucleotides was examined to see if it could replace the Cytidine nucleotides within the siRNA sequence. […] FIGS. 12a-12d show the effect of adding 2 gemcitabine nucleotides at the 3′ end of the Sense strand of each siRNA on potency and efficacy."}, "[3]": {"system": "BxPC3 cells", "experiment": "BxPC3 cell viability after 120 h exposure, Cell Titer Glo (Example 4, polyGEM constructs)", "description": "BxPC3 cells seeded in 384 well plates at 1000 cells/well were transfected with siRNA constructs or exposed to gemcitabine at the concentrations indicated in the figure. The samples tested were gemcitabine alone (GEM), the unmodified 19mer siRNA against CHK1 (CHK-AZ) and the same sequences of the siRNA but with either 2 (poly-2), 4 (poly-4) or 6 (poly-6) gemcitabine nucleotides added at the 3′ end of the Sense strand prior to annealing with the same antisense strand. After 120 h exposure to the various agents, the cell viability was determined by addition of Cell Titer Glo (PE), plates were shaken for 10-20 mins and then luminescence signal correlating with cell viability was determined in a PE Envision plate reader.\nIt was reasoned that, since such an improvement in efficacy against pancreatic cancer cell viability was obtained when adding 2 GEM nucleotides onto the SS of an siRNA, then adding additional GEMs would further improve the efficacy and/or potency of the siRNAs. To this end the unmodified 19mer siRNA (CHK-AZ) was compared with the same sequence where 2Gems were added at the 3′ end of the SS (poly-2), 4GEMs were added (poly-4) or 6 GEMs were added (poly-6). These sequences were compared with gemcitabine alone (GEM). The experiment was performed by transfection of the siRNAs in BxPC3 cells as for FIG. 1 but the exposure time prior to measurement of cell viability was 120 h. […]"}, "[4]": {"system": "BxPC3 pancreatic cancer cell", "experiment": "cells", "settings": "for pIC50: BxPC3, 120 h exposure, read-out: IC50, cell viability", "description": "The siRNA sequences shown in Table 2 were tested for efficacy and potency against BxPC3 pancreatic cancer cell viability after 120 h exposure."}, "[5]": {"system": "MiaPaca-2", "experiment": "MiaPaca-2 cell viability, 96 h exposure (Examples 8 and 9)", "settings": "for maximal inhibition of cell viability: 96 h", "description": "as §1\nUsing gemcitabine or the same unmodified siRNAs and exposure time (96 h) as used against BxPC3 cells (FIG. 1), we studied the effect on another pancreatic cancer cell line—MiaPaca-2."}, "[6]": {"system": "BxPC3 cells", "experiment": "Screen of siRNA sequences designed against CHK1: % viable cells 72 h after transfection, BxPC3", "description": "(§2) The percentage of viable cells 72 h after transfection of the siRNA sequences into cells in culture is shown (top panel—BxPC3 cells; lower panel—CFPAC cells). 100% viability is defined as that in the presence of a NON-silencing control siRNA (NS). CHK1_AZ (AZ) was tested as a comparator. CD=Cell Death siRNAs—known to produce maximal killing of many cell types when transfected into cells."}, "[7]": {"system": "CFPAC cells", "experiment": "Screen of siRNA sequences designed against CHK1: % viable cells 72 h after transfection, CFPAC", "description": "as §2"}, "[8]": {"system": "CHK1", "experiment": "siRNA validation of target silencing (qRTPCR)", "settings": "previous studies", "description": "These experiments were performed using the siRNAs shown below. The degree of gene target silencing was measured in cells transfected with the siRNAs at (50 nM) and the degree of gene silencing was measured using qRTPCR (using Beta-actin as a control housekeeping gene for normalization of the data)."}}, "note": "pIC50: −log10 of the molar value. Entries after “also recorded” stand apart in the source; their conditions may differ. Read-outs that look alike come from different tables or passages of the source."}
{"compound": "Nc1ccn([C@@H]2O[C@H](CO)[C@@H](O)C2(F)F)c(=O)n1", "note": "[gemcitabine, 2′,2′-difluoro 2′-deoxycytidine, reference compound]", "values": [{"measurement": "viability at 0.05 µM", "setting": "[1]; 50 nM", "result": 26, "unit": "%"}, {"measurement": "pIC50", "setting": "[1]; no Lipofectamine, read-out: IC50, reduction in cell viability", "result": "~8.15"}, {"measurement": "maximal efficacy (reduction/inhibition of cell viability, cell killing)", "setting": "[2]; BxPC3, 96 h", "result": "> 80", "unit": "%"}, {"measurement": "pIC50", "setting": "[2]; Homo sapiens, BXPC-3, BxPC3, 96 h", "result": "~8.22"}, {"measurement": "reduction in cell viability at concentrations above 50 nM", "setting": "[3]; BxPC3, 120 h, >50 nM", "result": 100, "unit": "%"}, {"measurement": "pIC50", "setting": "[3]; Homo sapiens, BXPC-3, BxPC3, 120 h exposure", "result": 8.52}, {"measurement": "pIC50", "setting": "[4]; Homo sapiens, BXPC-3", "result": "~8.30"}, {"measurement": "maximal efficacy, inhibition of cell viability", "setting": "[4]; human, 120 h, 100 nM", "result": "~ 85%"}, {"measurement": "inhibition at 0.1 µM", "setting": "[5]; Homo sapiens, MIA PaCa-2, 100 nM, read-out: maximal inhibition at 100 nM", "result": 90, "unit": "%"}]}
{"compound": "CHK_4: siRNA designed against CHK1, sense strand CCTGTGGAATAGTACTTACTGCAAT (SEQ ID NO: 9); same sequence as SLP49-1 (antisense strand not cited, further chemistry not given here)", "values": [{"measurement": "potency on BxPC3 cell viability", "setting": "[6]", "result": "most potent effect; also recorded: greater potency than CHK-AZ"}, {"measurement": "% viable BxPC3 cells at 72 h", "setting": "[6]; 100% = non-silencing control siRNA", "result": 24, "unit": "%"}, {"measurement": "potency on BxPC3 cell viability", "setting": "[6]; listed as #4", "result": "#4 sequence CCTGTGGAATAGTACTTACTGCAAT (SEQ ID NO: 9) seemed to be the best."}, {"measurement": "effect on CFPAC cell viability", "setting": "[7]", "result": "very pronounced effect on cell viability"}, {"measurement": "silencing of CHK1 gene", "setting": "[8]", "result": "better silencing than the Azorsa sequence"}]}
{"compound": "SLP49-1: Unmodified 25mer blunt ended CHK1 siRNA, sense CCUGUGGAAUAGUACUUACUGCAAU (SEQ ID NO: 18) (antisense AUUGCAGUAAGUACUAUUCCACAGG; unmodified RNA)", "values": [{"measurement": "inhibition of cell viability at 100 nM", "setting": "[2]; BxPC3, 96 h, 100 nM", "result": "~ 90%"}, {"measurement": "pIC50", "setting": "[2]; BxPC3, 96 h", "result": "~9.52"}, {"measurement": "Efficacy at 100 nM", "setting": "[4]; BxPC3, 120 h, 100 nM", "result": 90, "unit": "%"}, {"measurement": "pIC50", "setting": "[4]", "result": 9.60}, {"measurement": "maximal inhibition of cell viability", "setting": "[5]; listed as 25mer blunt ended siRNA designed against CHK1", "result": "~ 80%"}, {"measurement": "maximal inhibition of cell viability", "setting": "[5]; listed as Chk1_de", "result": 80, "unit": "%"}]}
{"compound": "SLP49-2: 25mer CHK1 siRNA with 2 GEMs attached at the 3′ end of the Sense Strand (SEQ ID NO: 19) (sense CCUGUGGAAUAGUACUUACUGCAAUCC; antisense AUUGCAGUAAGUACUAUUCCACAGG; 25mer siRNA, two gemcitabine nucleotides added at sense strand 3' end, further chemistry not given here)", "values": [{"measurement": "inhibition in cell viability at 0.1 nM", "setting": "[2]", "result": 31, "unit": "%"}, {"measurement": "efficacy (inhibition of cell viability / cell killing) at 30 nM", "setting": "[4]", "result": "~ 100%"}, {"measurement": "maximal inhibition at 10 nM", "setting": "[5]; 10 nM", "result": "~ 100%"}]}
{"compound": "SLP49-3: Unlabeled 25mer blunt ended siRNA against RAD17, sense CCAACAAUUAUGAUGAAAUUUCUUA (SEQ ID NO: 23) (antisense UAAGAAAUUUCAUCAUAAUUGUUGG; further chemistry not given here)", "values": [{"measurement": "maximal efficacy (reduction/inhibition of cell viability, cell killing)", "setting": "[2]; BxPC3, 96 h", "result": 60, "unit": "%"}, {"measurement": "maximal efficacy (reduction/inhibition of cell viability, cell killing)", "setting": "[2]; BxPC3, 96 h, listed as RAD17 siRNA", "result": "~ 60%"}, {"measurement": "pIC50", "setting": "[2]; BxPC3, 96 h", "result": "~8.30"}, {"measurement": "maximal efficacy, inhibition of cell viability", "setting": "[4]", "result": 60, "unit": "%"}, {"measurement": "pIC50", "setting": "[4]", "result": "~8.40"}, {"measurement": "maximal inhibition of cell viability", "setting": "[5]; listed as RAD17 siRNA", "result": "~ 30%"}, {"measurement": "maximal inhibition of cell viability", "setting": "[5]; listed as unmodified 25mer siRNA targeting RAD17", "result": "~ 25%"}]}
{"compound": "SLP49-4: RAD17 25mer siRNA with 2 additional GEMs attached at the 3′ end of the SS (SEQ ID NO: 24) (sense CCAACAAUUAUGAUGAAAUUUCUUACC; antisense UAAGAAAUUUCAUCAUAAUUGUUGG; 25mer siRNA, two gemcitabine nucleotides added at sense strand 3' end, further chemistry not given here)", "values": [{"measurement": "inhibition in cell viability at 0.1 nM", "setting": "[2]", "result": "no effect on cell viability"}, {"measurement": "efficacy (inhibition of cell viability / cell killing) at 30 nM", "setting": "[4]", "result": 100, "unit": "%"}, {"measurement": "pIC50", "setting": "[4]", "result": "~8.40"}, {"measurement": "inhibition at 30 nM", "setting": "[5]; 30 nM", "result": 93, "unit": "%"}]}
{"compound": "SLP49-5: CHK1 siRNA, SS shortened by first 2 bases, 3 GEMs in place of Cs (SEQ ID NO: 20) (sense UGUGGAAUAGUACUUACUGCAAU; antisense AUUGCAGUAAGUACUAUUCCACAGG; three gemcitabines replace cytidines in sense strand, positions not given here)", "values": [{"measurement": "efficacy (inhibition of cell viability / cell killing) at 30 nM", "setting": "[4]", "result": "83-97%"}, {"measurement": "pIC50", "setting": "[4]", "result": "~8.52"}]}
{"compound": "SLP49-6: CHK1 siRNA, SS shortened by first 2 bases, containing 2 Gems (SEQ ID NO: 21) (sense UGUGGAAUAGUACUUACUGCAAUCC; antisense AUUGCAGUAAGUACUAUUCCACAGG; sense strand contains two gemcitabines, positions not given here, further chemistry not given here)", "values": [{"measurement": "efficacy (inhibition of cell viability / cell killing) at 30 nM", "setting": "[4]", "result": "83-97%"}, {"measurement": "pIC50", "setting": "[4]", "result": "~8.52"}]}
